In data set [1] the target is neurotensin receptors. As to conditions: rat brain receptors; read-out: IC50, inhibition of {Trp11}-NT binding; cited from earlier work.
Data set [2] addresses T1, VIPR1 (VPAC1) (Homo sapiens, UniProt P32241).
T1 sequence (P32241 31-457): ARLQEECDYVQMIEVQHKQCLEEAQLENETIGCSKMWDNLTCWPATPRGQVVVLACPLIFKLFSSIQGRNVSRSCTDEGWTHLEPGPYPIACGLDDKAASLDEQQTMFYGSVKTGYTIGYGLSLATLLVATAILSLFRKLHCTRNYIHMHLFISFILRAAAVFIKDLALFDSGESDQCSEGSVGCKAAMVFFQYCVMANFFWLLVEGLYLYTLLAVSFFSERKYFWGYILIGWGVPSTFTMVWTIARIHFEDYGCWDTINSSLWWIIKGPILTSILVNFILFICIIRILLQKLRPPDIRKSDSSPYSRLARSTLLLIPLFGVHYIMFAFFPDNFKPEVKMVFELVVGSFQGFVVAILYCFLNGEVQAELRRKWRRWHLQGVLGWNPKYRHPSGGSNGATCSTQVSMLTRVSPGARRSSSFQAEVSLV
The experiment in a line: cAMP Hunter cell line functional assay, agonist mode (DiscoveRx HitHunter cAMP XS+). The data set is classed as cell-based. The following applies: for Mean RLU: cAMP, VIPR1 cells. The method, then: (§1) Once it was established that the cells were healthy and growing normally, cells were passaged from flasks using cell dissociation reagent buffer and seeded into white walled clear bottom 384-well microplates for compound profiling. For profiling, cells were seeded at a density of 10,000 cells per well in a total volume of 20 μL and were allowed to adhere and recover overnight prior to compound addition. cAMP modulation was determined using the DiscoveRx HitHunter cAMP XS+ assay.
(§2) For profiling compound in agonist mode, the cells were incubated in the presence of compound at 37° C. for 30 minutes. […] After appropriate compound incubation, assay signal was generated through incubation with DiscoverX lysis cocktail according to the manufacturers standard protocol. Dose curves were plotted using GraphPad Prism or Activity Base. Percentage activity is calculated using the following formula:
(§3) % Activity=100%×(mean RLU of test sample−mean RLU of vehicle control)/(mean RLU of MAX control−mean RLU of vehicle control).

Data set [3] addresses T2, VIPR2 (VPAC2) (Homo sapiens, UniProt P41587).
T2 construct: host or cells: cAMP Hunter cell line (CHO-K1 is named only in the prophetic b955)
T2 sequence (P41587 24-438): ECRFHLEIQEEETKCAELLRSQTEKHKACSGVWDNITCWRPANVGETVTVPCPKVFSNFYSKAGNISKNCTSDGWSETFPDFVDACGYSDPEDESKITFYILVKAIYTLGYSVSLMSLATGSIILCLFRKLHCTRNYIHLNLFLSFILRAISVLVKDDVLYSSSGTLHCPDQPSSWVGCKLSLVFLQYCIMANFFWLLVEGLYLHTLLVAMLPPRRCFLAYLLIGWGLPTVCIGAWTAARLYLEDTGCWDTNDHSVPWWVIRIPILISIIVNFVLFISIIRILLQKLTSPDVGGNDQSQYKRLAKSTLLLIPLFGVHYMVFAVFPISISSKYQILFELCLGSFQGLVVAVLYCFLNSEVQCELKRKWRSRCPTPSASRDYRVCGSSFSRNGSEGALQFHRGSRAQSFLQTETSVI
Described as above. The data set is classed as cell-based. The following applies: FIG. 3. Here is the method:
as §1, §2, §3

In data set [4] the target is amylin receptor. As to conditions: read-out: IC50, amylin receptor antagonist; cited from earlier work.
Data set [5] relates to calcitonin receptors. The following applies: amylin receptor vs calcitonin receptors; cited from earlier work.
Data set [6] concerns the target CGRP receptors (Homo sapiens, UniProt O60894+Q16602). As to conditions: amylin receptor vs CGRP receptors; cited from earlier work.
The conditions of data set [7]: humans; cited from earlier work.

Entries after “also recorded” stand apart in the source; their conditions may differ.

Chain of CGRP receptors (Q16602 23-461): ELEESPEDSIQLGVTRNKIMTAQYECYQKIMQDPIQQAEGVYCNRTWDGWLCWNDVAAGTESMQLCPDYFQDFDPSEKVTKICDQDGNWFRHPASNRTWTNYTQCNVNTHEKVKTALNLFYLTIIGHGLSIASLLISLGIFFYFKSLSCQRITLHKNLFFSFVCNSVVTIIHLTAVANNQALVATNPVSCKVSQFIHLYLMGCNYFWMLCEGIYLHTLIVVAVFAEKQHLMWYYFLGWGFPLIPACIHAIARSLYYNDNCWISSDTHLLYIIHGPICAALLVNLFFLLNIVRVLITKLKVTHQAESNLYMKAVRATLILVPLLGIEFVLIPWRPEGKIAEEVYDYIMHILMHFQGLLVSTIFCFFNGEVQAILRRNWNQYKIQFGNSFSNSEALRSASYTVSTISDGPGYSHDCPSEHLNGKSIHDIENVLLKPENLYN
Chain of CGRP receptors (O60894 27-148 partner): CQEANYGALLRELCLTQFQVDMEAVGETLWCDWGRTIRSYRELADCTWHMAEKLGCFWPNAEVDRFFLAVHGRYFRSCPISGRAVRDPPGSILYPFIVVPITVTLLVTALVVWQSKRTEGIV

As for Neuromedin N, in data set [1], the IC50 is 16.7 nM.
“HSDAVFTDNYXRLZKQLXVKZYLNX ILN [Compound 8]”: the “Mean RLU” value in data set [2] (1.03E−08 M) was determined as 13700.0 RLU; in data set [2] (1.03E−09 M), 13500.0 RLU; in data set [2] (1.03E−10 M) it was 9960.0 RLU; in data set [2] (1.03E−11 M) it was 10500.0 RLU; in data set [2] (1.03E−12 M), 10340.0 RLU; in data set [2] (5.03E−07 M) it was 112320.0 RLU. For the same substance, the “Mean RLU” value in data set [2] (5.03E−08 M) was determined as 96460.0 RLU; in data set [2] (5.03E−09 M), 13200.0 RLU; in data set [2] (5.03E−10 M), 9520.0 RLU. Further, the “activation of VIPR1 (in words)” value in data set [2] (FIG. 3) is given as “fully activate”. For the same substance, the EC50 in data set [2] (cAMP readout, 37° C. for 30 minutes, read-out: EC50 (peptide concentration for 50% VIPR1 activation)) turned out to be 28 nM. In data set [3], the “activation of / interaction with VIPR2 (in words)” value is reported as “not activate; also recorded: does not interact substantially”.
For the substance AC 187, in data set [4], the IC50 was 0.48 nM. Also, the “selectivity over calcitonin receptors” value in data set [5] is listed as 38 fold. For the same substance, the “selectivity over CGRP receptors” value in data set [6] is reported as 400 fold.
As for “GLP-1: glucagon-like peptide-1, a product of the proglucagon gene, gut hormone (HDEFERHAEGTFTSDVSSYLEGQAAQGFIAWLVKGRG)”, the plasma half-life in data set [7] was 2 min.

As usually defined, the IC50 is the concentration needed to halve the response being measured.

The values are drawn from patent publication US20130096050A1 (Longevity Biotech, Inc., priority 2010, published 2013).
